In ChEMBL document CHEMBL1201862, “PubChem BioAssay data set” (2004):
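Values below derive from 48-hour exposures of cells grown in 96-well plates, with endpoints linearly interpolated between the two concentrations bracketing the appropriate inhibition level. At the GI50, growth is halved.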 Active and inactive are the calls of the source. Cut-off read from the data, not from the text of the source: active = GI50 up to about 1.1 µM and inactive = higher.

Tests used:
Experiment in all cases: NCI-60 cell line screen, 48 h
[1] = system: ACHN
[2] = system: RPMI-8226
[3] = system: SF-268
[4] = system: MDA-N
[5] = system: OVCAR-4
[6] = system: OVCAR-5
[7] = system: SK-MEL-2
[8] = system: RXF 393
[9] = system: HL-60
[10] = system: SK-OV-3
[11] = system: HCC 2998
[12] = system: NCI-H23
[13] = system: SNB-19
[14] = system: Hs-578T
[15] = system: SN12C
[16] = system: MDA-MB-435
[17] = system: KM12
[18] = system: BT-549
[19] = system: TK-10
[20] = system: IGROV-1
[21] = system: COLO 205
[22] = system: HCT-15
[23] = system: PC-3
[24] = system: SF-539
[25] = system: SF-295
[26] = system: SNB-75
[27] = system: MOLT-4
[28] = system: 786-0
[29] = system: OVCAR-3
[30] = system: LOX IMVI
[31] = system: SK-MEL-28
[32] = system: NCI/ADR-RES
[33] = system: NCI-H460
[34] = system: UACC-257
[35] = system: MCF7
[36] = system: OVCAR-8
[37] = system: HOP-92
[38] = system: U-251
[39] = system: HCT-116
[40] = system: DU-145
[41] = system: SW-620
[42] = system: A498
[43] = system: A549
[44] = system: CAKI-1
[45] = system: M14
[46] = system: T47D
[47] = system: K562
[48] = system: HT-29
[49] = system: CCRF-CEM
[50] = system: MDA-MB-231
[51] = system: Malme-3M
[52] = system: HOP-62
[53] = system: NCI-H522
[54] = system: UACC-62
[55] = system: EKVX
[56] = system: NCI-H226
[57] = system: SK-MEL-5
[58] = system: UO-31

Measured: GI50

N/C(COc1ccc(Cl)cc1)=N\NC(=O)c1ccncc1
55.6 µM: [22]
inactive: [1] > 100 µM | [2] 39.4 µM | [3] > 100 µM | [4] > 100 µM | [5] > 100 µM | [6] > 100 µM | [7] > 100 µM | [8] 35.9 µM | [9] > 100 µM | [10] > 100 µM | [11] > 100 µM | [12] > 100 µM | [13] > 100 µM | [14] > 100 µM | [15] > 100 µM | [16] > 100 µM | [17] > 100 µM | [18] > 100 µM | [19] > 100 µM | [20] > 100 µM | [21] > 100 µM | [23] > 100 µM | [24] > 100 µM | [25] > 100 µM | [26] 30.3 µM | [27] > 100 µM | [28] 54.3 µM | [29] > 100 µM | [30] 38.4 µM | [31] > 100 µM | [32] 49.9 µM | [33] 63.5 µM | [34] 72.4 µM | [35] > 100 µM | [36] > 100 µM | [37] 58.9 µM | [38] > 100 µM | [39] > 100 µM | [40] > 100 µM | [41] > 100 µM | [42] 57.9 µM | [43] > 100 µM | [44] > 100 µM | [45] > 100 µM | [46] 62.4 µM | [47] > 100 µM | [48] > 100 µM | [49] 51.1 µM | [50] > 100 µM | [51] > 100 µM | [52] > 100 µM | [53] > 100 µM | [54] > 100 µM | [55] 76.2 µM

Nc1nc(O)nc2c1ncn2C1OC(CO)C(O)C1O (configuration not stated)
inactive: [1] 78.9 µM | [2] 61.7 µM | [3] > 100 µM | [4] 46.5 µM | [56] 69.3 µM | [5] 37 µM | [6] > 100 µM | [7] 64.4 µM | [8] 72.3 µM | [9] 22 µM | [10] 40.2 µM | [11] 25.7 µM | [12] > 100 µM | [13] > 100 µM | [14] > 100 µM | [15] 33.1 µM | [57] > 100 µM | [16] 57.5 µM | [17] > 100 µM | [18] > 100 µM | [19] 38.5 µM | [20] > 100 µM | [21] > 100 µM | [23] 22.6 µM | [25] > 100 µM | [26] 6.18 µM | [27] 26.1 µM | [28] 97.5 µM | [29] 52.7 µM | [30] 38.8 µM | [31] > 100 µM | [32] 22.6 µM | [33] > 100 µM | [34] > 100 µM | [35] 29 µM | [36] 23.8 µM | [37] 57.1 µM | [38] > 100 µM | [39] 45 µM | [40] 23.5 µM | [41] 50.7 µM | [42] > 100 µM | [43] > 100 µM | [44] 54 µM | [58] 49.9 µM | [45] 39.9 µM | [46] 25.1 µM | [47] 44.2 µM | [48] > 100 µM | [49] 33 µM | [50] 38 µM | [51] > 100 µM | [52] > 100 µM | [53] > 100 µM | [54] > 100 µM | [55] > 100 µM
28.4 µM: [22]

O=C(c1ccco1)N(C(=O)N1CCC(c2ccccc2)CC1)c1ccccc1
42 µM: [22]
inactive: [1] > 100 µM | [2] 17.4 µM | [3] 99.3 µM | [4] 42.5 µM | [56] 31.7 µM | [6] > 100 µM | [7] 42.5 µM | [8] 34 µM | [9] 19.3 µM | [10] 81.5 µM | [12] 45.7 µM | [13] > 100 µM | [14] 60.4 µM | [15] > 100 µM | [57] 21.6 µM | [16] 35 µM | [17] 27.2 µM | [18] 33.7 µM | [19] 55.3 µM | [20] 25.9 µM | [21] 39.7 µM | [23] 22.3 µM | [24] 74.5 µM | [26] 1.95 µM | [27] 17.7 µM | [28] 92.9 µM | [29] 47 µM | [30] 59.7 µM | [31] 62.7 µM | [32] 23.2 µM | [34] 38.9 µM | [35] 66.5 µM | [36] 40.7 µM | [38] 76.2 µM | [39] 42.7 µM | [40] 83 µM | [41] > 100 µM | [42] 94.8 µM | [44] > 100 µM | [58] 24.4 µM | [45] 41.4 µM | [46] 21.4 µM | [47] 29 µM | [48] 47.6 µM | [49] 26.5 µM | [50] > 100 µM | [51] > 100 µM | [54] 52.1 µM | [55] 20.2 µM

O=[N+]([O-])c1ccc(/C=N\N=c2/ccc([N+](=O)[O-])c[nH]2)cc1
> 100 µM: [22]
inactive: [1] > 100 µM | [2] > 100 µM | [3] > 100 µM | [4] > 100 µM | [56] > 100 µM | [5] > 100 µM | [6] > 100 µM | [7] > 100 µM | [8] > 100 µM | [9] > 100 µM | [10] 86.9 µM | [11] > 100 µM | [12] > 100 µM | [13] > 100 µM | [14] > 100 µM | [15] > 100 µM | [57] > 100 µM | [16] > 100 µM | [17] > 100 µM | [18] > 100 µM | [19] > 100 µM | [20] > 100 µM | [21] > 100 µM | [23] > 100 µM | [24] 32.6 µM | [25] > 100 µM | [26] 90.6 µM | [27] > 100 µM | [28] > 100 µM | [29] > 100 µM | [31] > 100 µM | [32] > 100 µM | [33] > 100 µM | [34] > 100 µM | [35] > 100 µM | [36] > 100 µM | [37] > 100 µM | [38] 69 µM | [39] > 100 µM | [40] > 100 µM | [41] > 100 µM | [43] > 100 µM | [58] > 100 µM | [45] > 100 µM | [46] > 100 µM | [47] > 100 µM | [48] > 100 µM | [49] > 100 µM | [50] 46 µM | [51] > 100 µM | [52] > 100 µM | [53] > 100 µM | [54] > 100 µM | [55] > 100 µM
